Source: patent US8034819B2, “Glucokinase activator” (Kyorin Pharmaceutical Co., Ltd., priority 2007, dated 2011)

These compounds were tested on ICR mice (assay: Hypoglycemic activity test). Settings: compared with compound 1 of the invention.
Format: in vivo
Procedure: Using ICR mice (male, 7 to 9 weeks, Charles River Laboratories Japan Inc.) the effects of each of the tested compounds on blood glucose levels were measured. Each compound was dissolved in a mixture of 60/40 of Gelucire 44/14 (trade name, manufactured by Gatefosse) and PEG 400, and the resulting mixture was orally administered (30 mg/kg, 10 mL/kg) to the mice, which had not been fed for two hours. Blood was collected by a blood collection tube coated with dipotassium ethylenediamine tetraacetate from the tail vein before administration (pre-value) and at points 0.5, 2, and 4 hours after administration. The collected blood was separated by centrifugation (4° C., 3,600×g, 3 minutes), to obtain blood plasma samples.
Each sample was diluted 5-fold with physiological saline, and the blood glucose level was measured using glucose CII-test Wako (trade name, manufactured by Wako Pure Chemical Industries Ltd.). 10 μL each of one of the samples, physiological saline, and 100 mg/dL of glucose standard solution (200 mg/dL of glucose standard solution diluted two-fold with physiological saline) were placed in each well of a 96 well flat bottom plate. Then, 150 μL per well of a developing solution was added, and the color was developed by standing for 5 minutes at 37° C. Measurement was carried out at OD 505 nm using an En Vision 2103 Multilabel Reader (trade name, manufactured by PerkinElmer). The decrease in Σ glucose from the decrease in glucose of each collected point with respect to the pre-value (average of the decrease in glucose of each collected point with respect to the pre-value) was calculated.

Structure (SMILES) | hypoglycemic activity (in words)
O=C(Nc1nccs1)C(C[C@H]1C[C@@H](F)[C@@H](F)C1)c1ccc(S(=O)(=O)C2CC2)cc1 (single isomer, unassigned; (+)) [Reference Example 3, (+)-2-[4-(Cyclopropylsulfonyl)phenyl]-3-[(1α,3α,4α)-3,4-difluorocyclopentyl]-N-(thiazol-2-yl)propionamide] | do not exhibit high hypoglycemic activity
O=C(Nc1nccs1)C(CC1CC(F)C(F)C1)c1ccc(S(=O)(=O)C2CC2)cc1 (single isomer, unassigned; (+)) [(+)-2-[4-(cyclopropylsulfonyl)phenyl]-3-[(1β,3α,4α)-3,4-difluorocyclopentyl]-N-(thiazol-2-yl)propionamide] | do not exhibit high hypoglycemic activity
O=C(Nc1nccs1)C(CC1CC(F)C(F)C1)c1ccc(S(=O)(=O)C2CC2)cc1 (single isomer, unassigned; (-)) [(−)-2-[4-(Cyclopropylsulfonyl)phenyl]-3-[(1β,3α,4α)-3,4-difluorocyclopentyl]-N-(thiazol-2-yl)propionamide] | do not exhibit high hypoglycemic activity
